pIC50: −log10 of the molar value. Read-outs that look alike come from different tables or passages of the source.
Key:
[1] = target: T1, Human BACE2 (Homo sapiens, UniProt Q9Y5Z0); test: TR-FRET assay; format: biochemical; details: enzyme 2.7 μg/mL, substrate 100 nM, pH4.5
T1 construct: the soluble part of the human β-Secretase2 (AA1-AA473) was cloned using BACE2(1-473)-(AVT)-Fc-pDEST12.2 mammalian expression vector; AVT linker (C); made in house
T1 sequence (Q9Y5Z0 21-473): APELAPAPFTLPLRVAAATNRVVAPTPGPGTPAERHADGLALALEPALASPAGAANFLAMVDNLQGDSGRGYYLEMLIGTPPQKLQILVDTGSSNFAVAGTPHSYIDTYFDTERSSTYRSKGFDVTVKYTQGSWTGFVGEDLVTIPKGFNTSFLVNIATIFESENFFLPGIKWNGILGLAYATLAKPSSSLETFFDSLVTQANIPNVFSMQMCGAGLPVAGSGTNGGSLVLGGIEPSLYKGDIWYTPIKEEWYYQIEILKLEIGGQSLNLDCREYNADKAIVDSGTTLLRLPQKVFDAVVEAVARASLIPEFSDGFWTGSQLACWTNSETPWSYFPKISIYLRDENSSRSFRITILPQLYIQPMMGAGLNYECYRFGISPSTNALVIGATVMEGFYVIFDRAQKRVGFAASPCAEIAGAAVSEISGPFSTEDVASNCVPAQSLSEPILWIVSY
Procedure: (§1) The β-secretase enzyme used in the TR-FRET was prepared as follows:
(§2) Human BACE1: the cDNA for the soluble part of the human β-Secretase1 (AA1-AA460) was cloned using the BACE1(1-460)-(AVT)-Fc-pGEN-IRES-neo mammalian expression vector. The gene was fused to the Fe domain of IgG1 (affinity tag) and stably cloned into HEK 293 cells. […]
(§3) A multidrop Combi was used for the liquid handling. Enzyme (7 μL) was added to the compound plate (containing 0.8 μL of compound in dimethylsulphoxide). The plate was incubated for 10 minutes. Substrate (8 μL) was then added, and the reaction proceeded for 17 minutes at r.t. The reaction was stopped with the addition of Stop solution (5.5 μL, NaOAC, pH 9). Fluorescence was measured on a Pherastar plate reader using HTRF module. […] 5 reference inhibitors with different affinities were used at all screen occasions in dose response.

[2] = tested on: SH-SY5Y cells; test: sAPPβ release assay; details: for IC50: Homo sapiens, SH-SY5Y
[3] = target: T2, Human BACE1 (Homo sapiens, UniProt P56817); test: Diluted TR-FRET assay; format: biochemical; details: 50 times less enzyme, 6.5 h reaction time at r.t.; read-out: IC50 BACE1 (dil. TR-FRET)
T2 construct: the soluble part of the human β-Secretase1 (AA1-AA460) was cloned using the BACE1(1-460)-(AVT)-Fc-pGEN-IRES-neo mammalian expression vector; AVT linker (C); made in house
Procedure: as §1, §2
as §3, with “Substrate (8 μL) was then added, and the reaction proceeded for 17 minutes at r.t.” left out

[4] = read-out: IC50 Cell (sAPPβ release, nM), SH-SY5Y cells, compounds incubated 16-17 h
[5] = read-out: IC50 Cell (sAPPβ release, nM)

T2 sequence (P56817 22-460): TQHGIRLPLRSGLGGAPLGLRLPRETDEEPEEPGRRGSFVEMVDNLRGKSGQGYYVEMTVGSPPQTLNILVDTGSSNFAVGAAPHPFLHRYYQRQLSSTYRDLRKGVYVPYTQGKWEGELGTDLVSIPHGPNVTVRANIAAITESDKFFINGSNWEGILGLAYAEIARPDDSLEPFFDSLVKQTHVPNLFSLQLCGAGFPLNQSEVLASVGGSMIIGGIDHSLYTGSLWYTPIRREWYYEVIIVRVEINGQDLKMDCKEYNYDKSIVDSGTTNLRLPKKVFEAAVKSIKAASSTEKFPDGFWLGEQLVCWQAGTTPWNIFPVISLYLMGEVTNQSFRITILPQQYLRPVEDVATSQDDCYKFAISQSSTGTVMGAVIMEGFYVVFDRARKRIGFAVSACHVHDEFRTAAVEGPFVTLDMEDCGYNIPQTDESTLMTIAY

Structure (SMILES) | pIC50 [1] | IC50 [2, 4] | IC50 [2, 5] | further results
[2H]C1([2H])OC(N)=N[C@]12c1cc(-c3cccnc3F)ccc1C[C@@]21CC[C@H](OC)[C@@H](C)C1 [Compound 5, (1S,1′R,3S,4S)-6′-(2-fluoropyridin-3-yl)-4-methoxy-3-methyl-3′H,5″H-dispiro[cyclohexane-1,2′-indene-1′,4″-oxazol]-5″,5″-d2-2″-amine] | 6.05 | 1.6 nM | – | –
[2H]C1([2H])OC(N)=N[C@]12c1cc(-c3cncc(F)c3)ccc1C[C@@]21CC[C@H](OC)[C@@H](C)C1 [Compound 9, (1S,1′R,3S,4S)-6′-(5-fluoropyridin-3-yl)-4-methoxy-3-methyl-3′H,5″H-dispiro[cyclohexane-1,2′-indene-1′,4″-oxazol]-5″,5″-d2-2″-amine] | 6.93 | 0.5 nM | – | –
COC1CCC2(CC1)Cc1ccc(-c3cc(Cl)cc(C#N)c3)cc1C21COC(N)=N1 (centres unmarked) [Compound 18, 3-((1r,4r)-2″-amino-4-methoxy-3′H,5″H-dispiro[cyclohexane-1,2′-indene-1′,4″-oxazol]-6′-yl-5″,5″-d2)-5-chlorobenzonitrile] | – | – | – | pIC50 ([2]; read-out: IC50 Cell (sAPPβ release), SH-SY5Y cells, compounds incubated 16-17 h): 8.48
[2H]C1([2H])OC(N)=N[C@]12c1cc(-c3cncc(F)c3)ccc1C[C@]21CC[C@@H](OC)[C@H](C)C1 [Compound 25, (1R,1′R,3R,4R)-6′-(5-fluoropyridin-3-yl)-4-methoxy-3-methyl-3′H,5″H-dispiro[cyclohexane-1,2′-indene-1′,4″-oxazol]-5″,5″-d2-2″-amine] | 6.87 | 1.8 nM | – | –
CO[C@@H]1CC[C@]2(Cc3ccc(-c4cncnc4)cc3[C@@]23COC(N)=N3)C[C@H]1C [Compound 33, (1R,1′R,3R,4R)-4-methoxy-3-methyl-6′-(pyrimidin-5-yl)-3′H,5″H-dispiro[cyclohexane-1,2′-indene-1′,4″-oxazol]-2″-amine] | – | – | 2.2 nM | –
[2H]C1([2H])OC(N)=NC12c1cc(-c3cc(C#N)cc(OC)c3)ccc1C[C@]21CC[C@@H](OC)CC1 (some centres unmarked) [Compound 36, 3-((1r,4r)-2″-amino-4-methoxy-3′H,5″H-dispiro[cyclohexane-1,2′-indene-1′,4″-oxazol]-6′-yl-5″,5″-d2)-5-methoxybenzonitrile] | – | – | 4 nM | –
CO[C@H]1CC[C@]2(CC1)Cc1ccc(-c3cncc(C)c3)cc1C21COC(N)=N1 (some centres unmarked) [Compound 41, (1r,4r)-4-methoxy-6′-(5-methylpyridin-3-yl)-3′H,5″H-dispiro[cyclohexane-1,2′-indene-1′,4″-oxazol]-2″-amine] | – | – | 5.1 nM | –
CO[C@H]1CC[C@]2(CC1)Cc1ccc(-c3cncnc3)cc1[C@@]21COC(N)=N1 [Compound 47, (1r,1′R,4R)-4-methoxy-6′-(pyrimidin-5-yl)-3′H,5″H-dispiro[cyclohexane-1,2′-indene-1′,4″-oxazol]-2″-amine] | – | – | 9.1 nM | pIC50 [3]: 6.82
CO[C@H]1CC[C@]2(CC1)Cc1ccc(-c3cncnc3)cc1C21COC(N)=N1 (some centres unmarked) [Compound 50, (1r,4r)-4-methoxy-6′-(pyrimidin-5-yl)-3′H,5″H-dispiro[cyclohexane-1,2′-indene-1′,4″-oxazol]-2″-amine] | – | – | 16 nM | pIC50 [3]: 6.24
[2H]C([2H])([2H])O[C@H]1CC[C@@]2(Cc3ccc(-c4cncc(F)c4)cc3[C@]23N=C(N)OC3([2H])[2H])C[C@@H]1C [Compound 66, (1S,1′R,3S,4S)-6′-(5-fluoropyridin-3-yl)-4-(methoxy-d3)-3-methyl-3′H,5″H-dispiro[cyclohexane-1,2′-indene-1′,4″-oxazol]-5″,5″-d2-2″-amine] | 6.87 | < 0.16 nM | – | –
[2H]C1([2H])OC(N)=N[C@]12c1cc(-c3cccnc3F)ccc1C[C@]21CC[C@@H](OC)[C@H](C)C1 [Compound 67, (1R,1′R,3R,4R)-6′-(2-fluoropyridin-3-yl)-4-methoxy-3-methyl-3′H,5″H-dispiro[cyclohexane-1,2′-indene-1′,4″-oxazol]-5″,5″-d2-2″-amine] | 6.13 | 1.7 nM | – | –
[2H]C1([2H])OC(N)=N[C@]12c1cc(-c3cncnc3)ccc1C[C@@]21CC[C@H](OC)[C@@H](CC)C1 [Compound 68, (1S,1′R,3S,4S)-3-ethyl-4-methoxy-6′-(pyrimidin-5-yl)-3′H,5″H-dispiro[cyclohexane-1,2′-indene-1′,4″-oxazol]-5″,5″-d2-2″-amine] | – | – | 1.9 nM | –
[2H]C([2H])([2H])O[C@H]1CC[C@@]2(Cc3ccc(-c4cncnc4)cc3[C@]23N=C(N)OC3([2H])[2H])C[C@@H]1C [Compound 71, (1S,1′R,3S,4S)-4-(methoxy-d3)-3-methyl-6′-(pyrimidin-5-yl)-3′H,5″H-dispiro[cyclohexane-1,2′-indene-1′,4″-oxazol]-5″,5″-d2-2″-amine] | – | – | 1.3 nM | –
[2H]C([2H])([2H])O[C@@H]1CC[C@]2(Cc3ccc(-c4cncnc4)cc3[C@]23N=C(N)OC3([2H])[2H])C[C@H]1C [Compound 73, (1R,1′R,3R,4R)-4-(methoxy-d3)-3-methyl-6′-(pyrimidin-5-yl)-3′H,5″H-dispiro[cyclohexane-1,2′-indene-1′,4″-oxazol]-5″,5″-d2-2″-amine] | – | – | 6.1 nM | –
[2H]C([2H])([2H])O[C@H]1CC[C@@]2(Cc3ccc(-c4cccnc4F)cc3[C@]23N=C(N)OC3([2H])[2H])C[C@@H]1C [Compound 74, (1S,1′R,3S,4S)-6′-(2-fluoropyridin-3-yl)-4-(methoxy-d3)-3-methyl-3′H,5″H-dispiro[cyclohexane-1,2′-indene-1′,4″-oxazol]-5″,5″-d2-2″-amine] | – | 0.39 nM | – | –
[2H]C1([2H])OC(N)=N[C@]12c1cc(-c3cncnc3)ccc1C[C@]21CC[C@@H](OC)[C@H](CC)C1 [Compound 75, (1R,1′R,3R,4R)-3-ethyl-4-methoxy-6′-(pyrimidin-5-yl)-3′H,5″H-dispiro[cyclohexane-1,2′-indene-1′,4″-oxazol]-5″,5″-d2-2″-amine] | – | – | 0.9 nM | –
[2H]C1([2H])OC(N)=N[C@]12c1cc(-c3cc(F)cnc3F)ccc1C[C@@]21CC[C@H](OC)[C@@H](C)C1 [Compound 76, (1S,1′R,3S,4S)-6′-(2,5-difluoropyridin-3-yl)-4-methoxy-3-methyl-3′H,5″H-dispiro[cyclohexane-1,2′-indene-1′,4″-oxazol]-5″,5″-d2-2″-amine] | 6.64 | 0.5 nM | – | –
CO[C@H]1CC[C@]2(CC1)Cc1ccc(-c3cncc(C)c3)cc1[C@@]21COC(N)=N1 [Compound 77, (1r,1′R,4R)-4-methoxy-6′-(5-methylpyridin-3-yl)-3′H,5″H-dispiro[cyclohexane-1,2′-indene-1′,4″-oxazol]-2″-amine] | – | – | 7.5 nM | –
[2H]C([2H])([2H])O[C@@H]1CC[C@]2(Cc3ccc(-c4cccnc4F)cc3[C@]23N=C(N)OC3([2H])[2H])C[C@H]1C [Compound 78, (1R,1′R,3R,4R)-6′-(2-fluoropyridin-3-yl)-4-(methoxy-d3)-3-methyl-3′H,5″H-dispiro[cyclohexane-1,2′-indene-1′,4″-oxazol]-5″,5″-d2-2″-amine] | 6.05 | 1.5 nM | – | –
[2H]C([2H])([2H])O[C@@H]1CC[C@]2(Cc3ccc(-c4cncc(F)c4)cc3[C@]23N=C(N)OC3([2H])[2H])C[C@H]1C [Compound 79, (1R,1′R,3R,4R)-6′-(5-fluoropyridin-3-yl)-4-(methoxy-d3)-3-methyl-3′H,5″H-dispiro[cyclohexane-1,2′-indene-1′,4″-oxazol]-5″,5″-d2-2″-amine] | 6.68 | 2.1 nM | – | –
[2H]C1([2H])OC(N)=N[C@]12c1cc(-c3cc(F)cnc3F)ccc1C[C@]21CC[C@@H](OC)[C@H](C)C1 [Compound 109, {(1R,1′R,3R,4R)-6′-(2,5-difluoropyridin-3-yl)-4-methoxy-3-methyl-3′H,5″H-dispiro[cyclohexane-1,2′-indene-1′,4″-oxazol]-5″,5″-d2-2″-amine}] | 6.34 | 1.8 nM | – | –

— patent US10053453B2, “Compounds and their use as BACE inhibitors” (AstraZeneca AB, priority 2014, dated 2018)
